In patent US20040082551A1, “Novel pyrazoles and their use as p38 kinase inhibitors” (priority 2002, published 2004):
Where a name gives a salt, the structure may show the parent alone. Read-outs that look alike come from different tables or passages of the source.

Target: T1, human p38 kinase alpha (Homo sapiens, UniProt Q16539)
T1 construct: The coding region of the human p38α cDNA was obtained by PCR-amplification from RNA isolated from the human monocyte cell line THP.1; made in house; host or cells: E. coli DH10B
Assay: In vitro p38 kinase inhibition analysis (PHAS-I 32P-ATP or EGFRP 33P-ATP format)
Type: biochemical
Settings: read-out: p38α Kinase Inhibition (IC50 in μM)

[1] = Table 1, compounds of Examples 1-28, one of two in vitro assay methods, Hydrochloride Hydrate
[2] = Table 2, additional pyrazole compounds, Examples 56-169

T1 sequence (Q16539 whole entry): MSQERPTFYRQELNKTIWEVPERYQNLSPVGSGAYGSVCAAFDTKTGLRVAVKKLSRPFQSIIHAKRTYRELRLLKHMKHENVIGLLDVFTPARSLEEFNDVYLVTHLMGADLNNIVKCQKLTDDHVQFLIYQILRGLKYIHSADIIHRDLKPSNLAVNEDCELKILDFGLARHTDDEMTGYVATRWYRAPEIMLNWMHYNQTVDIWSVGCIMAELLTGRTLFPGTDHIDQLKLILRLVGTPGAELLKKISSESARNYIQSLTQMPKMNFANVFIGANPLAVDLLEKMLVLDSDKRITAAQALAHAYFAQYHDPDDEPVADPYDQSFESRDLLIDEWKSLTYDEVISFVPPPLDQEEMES

Structure (SMILES)	IC50 [2] [µM]	also measured
C[C@@H](N[C@H]1CC[C@H](c2[nH]nc(-c3ccc(Cl)cc3)c2-c2ccncn2)CC1)c1ccccc1 [Example 1, 4-[3-(4-chlorophenyl)-4-pyrimidin-4-yl-1H-pyrazol-5-yl]-N-[(1R)-1-phenylethyl]-trans-cyclohexanamine]	–	IC50 (Table 1, compounds of Examples 1-28, one of two in vitro assay methods): 0.0314 µM
Clc1ccc(-c2n[nH]c([C@H]3CC[C@H](N4CCCCC4)CC3)c2-c2ccncn2)cc1 [Example 8, 4-[3-(4-chlorophenyl)-5-(4-piperidin-1-ylcyclohexyl)-1H-pyrazol-4-yl]pyrimidine Hydrochloride Hydrate]	–	IC50 [1]: 0.0582 µM
COCCOCC(=O)N1CCC(c2[nH]nc(-c3ccc(Cl)cc3)c2-c2ccncn2)CC1 [Example 61]	0.764	–
CC(C)(C)OC(=O)N1CCC(c2[nH]nc(-c3ccc(Cl)cc3)c2-c2ccnc(Oc3ccccc3C#N)n2)CC1 [Example 133]	0.848	–
Cc1ccc(-c2n[nH]c(C3CCN(C(=O)CO)CC3)c2-c2ccncn2)cc1Cl [Example 71]	0.444	–
OC[C@H]1CCCN1[C@H]1CC[C@H](c2[nH]nc(-c3ccc(Cl)cc3)c2-c2ccncn2)CC1 [Example 10, ((2R)-1-{4-[3-(4-chlorophenyl)-4-pyrimidin-4-yl-1H-pyrazol-5yl]cyclohexyl}pyrrolidin-2-yl)methanol Hydrochloride Hydrate]	–	IC50 [1]: 0.0354 µM
O=C(CO)N1CCC(c2[nH]nc(-c3cc(F)ccc3F)c2-c2ccncn2)CC1 [Example 87]	1.75	–
CSc1nccc(-c2c(-c3ccc(Cl)cc3)n[nH]c2C2CCN(C(=O)COC(C)=O)CC2)n1 [Example 93]	0.297	–
